These are literature values, as cited in patent US12226530B2, “Lenalidomide gastro-retentive sustained-release tablet and preparation method thereof” (DiQi Pharmaceuticals Co., Ltd., priority 2018, dated 2025).

The structures appear in SMILES notation. Read-outs that look alike come from different tables or passages of the source.

Assay in series [1]: not given
This is another data set of the same source.

Regarding `Nc1cccc2c1CN(C1CCC(=O)NC1=O)C2=O` (centres unmarked) [lenalidomide], the Solubility result is “about 18 mg/ml” (hydrochloric acid buffer with a pH of 1.2) and “lower than 0.6 mg/ml” (pH of solution medium greater than 4.6). Further, the Change of concentration entry in series [1] (solvent pH 1.2, 6 hours) is reported as “unchanged”. Also, the Decrease of concentration in series [1] (solvent pH 4.5, 6 hours) is listed as 6%; in series [1] (solvent pH 6.8, 6 hours), 16%.
